Source: patent publication EP1073639B1, “QUINOLINE DERIVATIVES” (Active Biotech AB, priority 1998, dated 1999)
Marks after values point to notes of the source that are not given here.

Key:
Format in all cases: in vivo
SJL/N female mice = test: Acute experimental autoimmune encephalomyelitis (aEAE); conditions: for % aEAE Inhibition: mice
DBA/1 male mice = test: Collagen induced arthritis (type II collagen); conditions: dose 5 mg/kg p.o.; for Mean score day 35: day 35, arthritic score
Experimental: Collagen induced arthritis
DBA/1 male mice between 8 to 10 weeks of age were used for the experiments. On day 0 the mice were immunized intradermally at the base of the tail with bovine type II collagen (100 µg/mouse) in Freund's complete adjuvant. The treatment was given per os daily on days 3 to 7, 10 to 14, 17 to 21, 24 to 28 and 31 to 35. Fifteen days after immunization mice were inspected for signs of arthritis. The animals were inspected three times a week. Every second or third day individual paws of the arthritic animals were scored by a scale from 0-4 (0 = no arthritis, 1 = arthritis in one of the interphalangeal, metatarsophalangeal or intercarpal joints, 2 = two arthritic joints, 3 = three arthritic joints, 4 = as in 3 but with more severe redness and swelling of the paw). The score for each paw was added to give a maximal attainable score of 16 for each mouse.

female rats = test: Teratogenic effects in the rat (embryotoxicity, external malformations); conditions: for % malformed foetuses: rat
beagle dogs = test: Beagle Pain Syndrome (BPS); conditions: result in words
Experimental: Beagle Pain Syndrome (BPS)
The compounds were administrated intravenously to beagle dogs. The dosage was given for five consecutive days. The dogs were evaluated for clinical and laboratory signs of the pain syndrome, e.g., fever, increased erythrocyte sedimentation rate (ESR), […] (AP), induction of acute phase proteins and vasculitis.

Clearance in dogs = conditions: higher than roquinimex

Structure (SMILES) | % aEAE Inhibition (SJL/N female mice; 0.2 mg/kg p.o.) | % aEAE Inhibition (SJL/N female mice; 1 mg/kg p.o.) | % aEAE Inhibition (SJL/N female mice; 5 mg/kg p.o.) | Incidence (%) day 35 (DBA/1 male mice) | Mean score day 35 (DBA/1 male mice) | other results
CCN(C(=O)c1c(O)c2c(OC)cccc2n(C)c1=O)c1ccccc1 [Compound C, N-ethyl-N-phenyl-1,2-dihydro-4-hydroxy-5-methoxy-1-methyl-2-oxo-quinoline-3-carboxamide] | 71% | 73% | 90% | – | – | % aEAE Inhibition (SJL/N female mice; 0.04 mg/kg p.o.): 48%
CCN(C(=O)c1c(O)c2c(Br)cccc2n(C)c1=O)c1ccccc1 [D, N-ethyl-N-phenyl-1,2-dihydro-4-hydroxy-5-bromo-1-methyl-2-oxo-quinoline-3-carboxamide] | – | – | – | 30% | 0.4 | –
CCN(C(=O)c1c(O)c2c(Cl)cccc2n(C)c1=O)c1ccccc1 [Compound B, N-ethyl-N-phenyl-1,2-dihydro-4-hydroxy-5-chloro-1-methyl-2-oxo-quinoline-3-carboxamide] | 74% | 98% | 96% | – | – | % aEAE Inhibition (SJL/N female mice; 0.04 mg/kg p.o.): 60%; % malformed foetuses (female rats; 6 mg/kg, route s.c.): 0^a) %; % malformed foetuses (female rats; 30 mg/kg, route s.c.): 1^a) %
CN(C(=O)c1c(O)c2ccccc2n(C)c1=O)c1ccccc1 [Roquinimex, N-methyl-N-phenyl-1,2-dihydro-4-hydroxy-1-methyl-2-oxo-quinoline-3-carboxamide, reference compound] | 35% | 40% | 69% | 50% | 1.7 | inhibition of EAE in mice (SJL/N female mice; 5 mg/kg, treatment control): 70%; % malformed foetuses (female rats; 10 mg/kg, route p.o.): 9^b) %; % malformed foetuses (female rats; 30 mg/kg, route p.o.): 30^b) %; teratogenic effect in the rat (female rats; result in words): teratogenic; Beagle Pain Syndrome (BPS) (beagle dogs): induce the Beagle Pain Syndrome
CCN(C(=O)c1c(O)c2ccccc2n(C)c1=O)c1ccccc1 [Compound F, N-ethyl-N-phenyl-1,2-dihydro-4-hydroxy-1-methyl-2-oxo-quinoline-3-carboxamide, reference compound] | – | – | 63% | – | – | –
Cn1c(=O)c(C(=O)Nc2ccccc2)c(O)c2ccccc21 [A] | – | – | – | – | – | clearance (Cl) in comparison with roquinimex (Clearance in dogs): 800 fold
CN(C(=O)c1c(O)c2c(Cl)cccc2n(C)c1=O)c1ccccc1 [Compound G, N-methyl-N-phenyl-1,2-dihydro-4-hydroxy-5-chloro-1-methyl-2-oxo-quinoline-3-carboxamide] | – | – | – | – | – | % malformed foetuses (female rats; 6 mg/kg, route s.c.): 37^a) %
CCN(C(=O)c1c(O)c2c3c(ccc2n(C)c1=O)OCO3)c1ccccc1 [E, N-ethyl-N-phenyl-1,2-dihydro-4-hydroxy-5,6-methylenedioxy-1-methyl-2-oxo-quinoline-3-carboxamide] | – | – | – | 10% | 0.1 | –
